Test [1] has as its system BC1 cell line. Kind of test: Cytotoxic activity against human breast cancer cells of BC-1 cell lines; NA means inactive at 20 ug/mL. It is filed as functional, cell-based.
The test system of test [2] is KB. Kind of test: Cytotoxic activity against human epidermoid carcinoma cells of KB cell lines in mouth; NA means inactive at 20 ug/mL. The test is classed as functional, cell-based.
For test [3], the system named is Mycobacterium tuberculosis. Kind of test: Antimycobacterial activity was assessed against Mycobacterium tuberculosis H37Ra using theMicroplate Alamar Blue Assay (MABA); NA means inactive at 200 ug/mL. The test is classed as functional, organism-based.
The test system of test [4] is Plasmodium falciparum. Briefly: Antimalarial activity against multidrug-resistant Plasmodium falciparum K1; Not active at 20 ug/mL. The test is classed as functional, organism-based.
Test [5] has as its system BC1 cell line. Kind of test: Cytotoxic activity against human breast cancer cells of BC-1 cell lines. It is filed as functional, cell-based.
Test [6] relates to KB. Briefly: Cytotoxic activity against human epidermoid carcinoma cells of KB cell lines in mouth. It is filed as functional, cell-based.
The subject of test [7] is Plasmodium falciparum. Briefly: Antimalarial activity against multidrug-resistant Plasmodium falciparum K1. It is filed as functional, organism-based.
Test [8] has as its system Mycobacterium tuberculosis. Kind of test: Antimycobacterial activity was assessed against Mycobacterium tuberculosis H37Ra using theMicroplate Alamar Blue Assay (MABA). It is filed as functional.

Molecules are shown by their SMILES. Values after ≈ are worked out from the molar mass of the structure shown. Active and inactive are the calls of the source. No cut-off for these calls is given here.

Our source for the IC50 and MIC values is ChEMBL document CHEMBL1133881, “Antimalarial halorosellinic acid from the marine fungus Halorosellinia oceanica” (Bioorg Med Chem Lett, 2001).

For `CCCCC/C=C(/C(=O)O)C(C)C(=O)OC` (centres undefined), the IC50 entry in the test on BC1 cell line [1], with KB [2] and with Plasmodium falciparum [4] was “Not Active” in each case. In test [3], the MIC result was “inactive”.
Consider `CCCCC/C=C(/C(=O)O)C(C)C(=O)O` (centres undefined), for which the IC50 in the test with BC1 cell line [5] is 5 µg/mL (≈ 23.3 µM); in the test with KB [6] it was 13 µg/mL (≈ 60.7 µM); with Plasmodium falciparum [4] it was “Not Active”. Moreover, the MIC result in test [3] is “inactive”.
For the molecule `C[C@H]1Cc2c(C(=O)O)ccc(O)c2C(=O)O1`, the IC50 came to 3 µg/mL (≈ 13.5 µM) in the test with BC1 cell line [5], 3 µg/mL (≈ 13.5 µM) in the test on KB [6] and 4 µg/mL (≈ 18 µM) in the test with Plasmodium falciparum [7]. Also, the MIC result in test [3] is “inactive”.
Regarding `CC(=O)O[C@@H]1/C=C/[C@@](C)(O)C(=O)[C@@H](C)C/C=C/[C@H]2[C@@H]3O[C@]3(C)[C@@H](C)[C@H]3[C@H](Cc4ccccc4)NC(=O)[C@@]312` [CYTOCHALASIN Q], the IC50 was found to be 1 µg/mL (≈ 1.97 µM) in the test with BC1 cell line [5], 3 µg/mL (≈ 5.91 µM) in the test with KB [6] and 17 µg/mL (≈ 33.5 µM) with Plasmodium falciparum [7]. The MIC result in test [3] was “inactive”.
Regarding `C/C(=C\[C@H](O)[C@H](O)[C@H](C)C1=CC[C@@]2(C)C[C@@H]3[C@H](C)CC[C@@H]3/C(C(=O)O)=C\C[C@H]12)C(=O)O`, the IC50 entry in the test on BC1 cell line [1] was “Not Active”; in the test on KB [2], “Not Active”; with Plasmodium falciparum [7] it was 13 µg/mL (≈ 30.1 µM). In addition, the MIC in test [8] came out at 200 µg/mL (≈ 462 µM).
Turning to `C/C(=C\C1OC(C)(C)O[C@@H]1[C@H](C)C1=CC[C@@]2(C)C[C@@H]3[C@H](C)CC[C@@H]3/C(C(=O)O)=C\C[C@H]12)C(=O)O` (some centres undefined), the IC50 result is “Not Active” with BC1 cell line [1], “Not Active” with KB [2] and 19 µg/mL (≈ 40.2 µM) with Plasmodium falciparum [7]. The lowest concentration to inhibit growth in test [8] (MIC) was 200 µg/mL (≈ 423 µM).
